“Also recorded” adds a separate entry of the source. Where no end group is shown, it is not given here.
Columns and labels:
[1] = tested on: regulatory T lymphocytes (CD25+); assay: Inhibition of suppressant action of regulatory T lymphocytes (CD25+) on splenocyte proliferation; format: cell-based, Balb-c mice; details: for dose dependence of inhibition of regulatory T lymphocyte action: 50 μM and double dilutions
Protocol: 1. OBTAINMENT OF TOTAL SPLENOCYTES: To obtain splenocytes from 6-week old, female Balb-c mice, 4 animals were sacrificed, and after extracting the spleen, they were transferred to a clean medium for their dispersion with crystals, the homogenate was filtered (70-micron filter) and transferred to 50-ml tubes, for their subsequent washing and centrifugation. The cells obtained were incubated for 1 minute in lysis buffer, for the elimination of erythrocytes and they were subsequently washed with clean culture medium. Finally, the cells obtained were resuspended in 1 ml of AUTOMACS medium and they were counted. 2. PURIFICATION OF CD25+ LYMPHOCYTES: the purification of CD25+ lymphocytes was performed by the use of magnetic columns labelling with CD25PE and after incubation, anti-PE magnetic microspheres (Phycoerythrin) were added. After incubation, washing and filtration (30-micron filter) the samples were passed through a magnetic column, obtaining the eluate containing the CD25− population by gravity. Once the column is extracted from the magnetic field it is washed under pressure, obtaining the CD25+ cells. 3. SUPPRESSANT ACTIVITY ASSAY: To verify the regulating nature of the CD25+ population, a total of 100,000 splenocytes was seeded per well on a U-bottomed 96-well plate, in a volume of 200 μl per well and anti-CD3 antibody ([…]) alone or opposing CD25+ or CD25−, placing 25,000 cells per well (CD25+) or 50,000 cells per well (CD25−), performing double dilutions of the concentration of these cells. 4. ASSAY FOR THE INHIBITION OF SUPPRESSANT ACTION BY PEPTIDES: On the U-bottomed 96-well plate, with 200 μl vol/well, 100,000 splenocytes were seeded per well and anti-CD3 antibody (0.5 μl/well) plus 25,000 CD25+ lymphocytes per well. Peptides were added to these mixtures (3 columns/peptide, 50 MicroM in the 1st row and double dilution in the following three rows). 3 peptides were assayed: P17(1-11) SEQ ID NO: 3, P17(1-11)am SEQ ID NO: 4 and AcP17(1-11)am SEQ ID NO: 5. Both this assay and that of the suppressant activity were incubated at 37° C. for 48 h, tritium labelled thymidine was added at 0.5 μCi/well and it is harvested after 8 h, subsequently counting the CPM emitted by the cells from each well. 5. VERIFICATION OF THE EFFECTIVE SEPARATION OF THE Treg: Labelling with fluorescent anti-CD4 and anti-CD25 antibodies and analysis by flow cytometry (89% of the population magnetically separated is DC4+CD25+).

CT26 cells = assay: Tumour growth of subcutaneous CT26 in AH1-immunized mice treated with peptides; format: in vivo, balb-c mice; details: 50 μg/mouse/48 h i.p. between days 6 and 10, s.c. CT26 on day 0, AH1 immunization 10 days before
Protocol: GROUPS: 4 groups of 7 female balb-c mice, of 6 weeks old/group.
AH1+FIA s.c.+p144 (50 μg i.p./dose/mouse) AH1+FIA s.c.+p17(1-11) (50 μg i.p./dose/mouse) DESIGN: AH1+FIA: […]; Peptides: from day −6 on alternate days until day 10: Tumour model volume: Each 3 days from day 10 to day 41. Challenge on day 0 with CT26 (500000 cells/mouse s.c. in the flank).
REDUCTION IN THE MEAN TUMOUR VOLUME BY GROUPS TREATED WITH PEPTIDES: The effect of peptides p144 and p17(1-11)Am was studied in a tumour progression model. In this model, mice were immunized with 50 μg of AH1 10 days before the administration of 5×10^5 CT26 cells. In order to verify the effect of blocking the TGF-β1 on the protection against CT tumour cells, another two groups of mice were treated on alternate days by intraperitoneal route between days 6 and 10 (50 μg/mouse/48 h) with peptides p144 and p17(1-11)Am. […] This protection reached 100% of the animals in the case of p144 (FIG. 16).

[2] = tested on: MC38, LLC, CT26 and RENCA tumour lines; assay: NK cell cytotoxicity, 51Cr release assay; format: cell-based, mouse; details: effector cells with/without p17 for 6 days; 4.5 h 51Cr release
Protocol: They were performed from spleen cells from RAG^−/− mice, without T and B lymphocytes. In some cases, the total splenocytes was cultured on 6-well plates at 4×10^6 cells per ml of RPMI medium enriched with 10% SBF, L-glutamine, antibiotics, non-essential amino acids, β-mercaptoethanol and human recombinant interleukin-2 (Chiron) at 600 IU/ml. In half the wells, peptide p17 was added at a concentration of 150 μg/ml. After 48 hours, the medium was removed and the wells were washed with RPMI medium to discard the non-adherent cells. Next, fresh medium was added with/without peptide. On day +5, the medium was again changed, this time replacing all the cells and peptide p17 in the corresponding cultures. The cells counts with trypan blue were performed on days +5 and +6 of this culture. In other cases, NK cells from mouse splenocytes were purified by an immunomagnetic selection using the MiniMACS system, anti-DX5 beads and MS columns (Miltenyi Biotech) according to the manufacturer's instructions. […]
The cytotoxicity of NK cells was verified by standard 4.5 h ^51Cr release assays. […] Finally, the release of ^51Cr due to lysis by NK cells was measured after 4.5 h in a TopCount Scintillation counter (Perkin Elmer). The cytotoxicity was measured as a percentage of Cr released with respect to the total acquired by the cells. […]

Substance: Acp17(1-11)am: p17(1-11)am which further has position 1 (lysine) acetylated, SEQ ID NO: 5 (Ac-KRIWFIPRSSW-NH2)
- dose dependence of inhibition of regulatory T lymphocyte action [1]: dose-dependent
- inhibition of the suppressant effect of regulatory T lymphocytes ([1]; peptide 25 μM): 148%
- inhibition of the suppressant effect of regulatory T lymphocytes ([1]; peptide 50 μM): totally inhibiting

Substance: p17(1-11)am: amino acids 1 to 11 of peptide p17, position 11 (tryptophan) amidated, SEQ ID NO: 4 (KRIWFIPRSSW-NH2)
- dose dependence of inhibition of regulatory T lymphocyte action [1]: dose-dependent
- inhibition of the suppressant effect of regulatory T lymphocytes ([1]; peptide 50 μM): 128%
- inhibition of the suppressant effect of regulatory T lymphocytes ([1]; peptide 50 μM, listed as P17(1-1)am): totally inhibiting
- tumour growth (CT26 cells): delay tumour growth
- tumour growth (CT26 cells; listed as p17(1-11)Am): protection against tumour growth

Substance: p17(1-11): fragment of peptide p17, amino acids 1 to 11, SEQ ID NO: 3 (KRIWFIPRSSW)
- inhibition of the suppressant effect of regulatory T lymphocytes ([1]; peptide 50 μM): 20%

Substance: KRIWFIPRSSWYERA [p17]
- cytotoxic activity of NK cells against tumour lines [2]: improves the cytotoxic activity; also recorded: increases the cytotoxicity

— patent publication US20090263410A1, “USE OF TGF-B1 INHIBITOR PEPTIDES IN THE PREPARATION OF AN IMMUNE RESPONSE MODULATING AGENT” (Proyecto De Biomedicina Cima, S.L., priority 2005, published 2009)
